Measurements: US7282150B2, “Method of extracting and method of purifying an effective substance” (Ezaki Glico Co., Ltd., priority 2001, dated 2007)

Key:
[1] = cited from earlier work
[2] = Extraction from aqueous 30% glucose solution with tetrahydrofuran or acetonitrile (absorbance at 280 nm of aqueous phase); type: physicochemical; settings: single extraction; for starting amount extracted in the tetrahydrofuran phase: 10 ml THF + 10 ml aqueous solution containing 30% glucose; for starting amount extracted in the acetonitrile phase: 10 ml acetonitrile + 10 ml aqueous solution containing 30% glucose
Method: (§1) 1 g of a mixture of catechins (SUNPHENON®; manufactured by Taiyo Kagaku Co., Ltd.) was dissolved in 100 ml of an aqueous solution containing 30% glucose to obtain a sample aqueous solution. The absorbance at 280 nm of the sample aqueous solution was measured. […] Thereafter, the mixture was allowed to stand for 30 minutes. […] The lower phase (aqueous phase) was recovered, and the volume and the absorbance at 280 nm thereof were measured. The amount of the catechins extracted in the upper phase (polar organic solvent phase) was calculated from a reduction in the absorbance at 280 nm of the lower phase and the solution volume of the lower phase.
This additional extraction operation to Example 1a was conducted except for use of 10 ml of acetonitrile instead of 10 ml of tetrahydrofuran.
as §1, with “of hesperidin glycosides (manufactured” for “of a mixture of catechins (SUNPHENON®; manufactured”, “by Toyo Sugar Refining” for “by Taiyo Kagaku”, “Ltd.) were” for “Ltd.) was”, “of hesperidin glycosides” for “of the catechins”, “phase. […] Further, similar operations and measurements were performed twice more by adding 5 ml of tetrahydrofuran to the aqueous phase recovered after the tetrahydrofuran extraction.” for “phase.”
This additional extraction operation to Example 3a was conducted except for use of 10 ml of acetonitrile instead of 10 ml of tetrahydrofuran.
as §1, with “salicin” for “a mixture of catechins (SUNPHENON®; manufactured by Taiyo Kagaku Co., Ltd.)”, “salicin” for “the catechins”
This additional extraction operation to Example 5a was conducted except for use of 10 ml of acetonitrile instead of 10 ml of tetrahydrofuran.
as §1, with “caffeic acid” for “a mixture of catechins (SUNPHENON®; manufactured by Taiyo Kagaku Co., Ltd.)”, “caffeic acid” for “the catechins”
This additional extraction operation to Example 7a was conducted except for use of 10 ml of acetonitrile instead of 10 ml of tetrahydrofuran.
as §1, with “salicyl alcohol” for “a mixture of catechins (SUNPHENON®; manufactured by Taiyo Kagaku Co., Ltd.)”, “salicyl alcohol” for “the catechins”
This additional extraction operation to Example 9a was conducted except for use of 10 ml of acetonitrile instead of 10 ml of tetrahydrofuran.

[3] = Extraction from aqueous 30% glucose + 10% sodium chloride solution with acetone or isopropanol (absorbance at 280 nm of aqueous phase); type: physicochemical; settings: single extraction; for starting amount extracted in the acetone phase: 10 ml acetone + 10 ml aqueous solution containing 30% glucose and 10% sodium chloride; for starting amount extracted in the isopropanol phase: 10 ml isopropanol + 10 ml aqueous solution containing 30% glucose and 10% sodium chloride
Method: as §1, with “Kagaku)” for “Kagaku Co., Ltd.)”, “glucose and 10% sodium chloride” for “glucose”
This additional extraction operation to Example 2a was conducted except for use of 10 ml of isopropanol instead of 10 ml of acetone.
as §1, with “of hesperidin glycosides (Toyo Sugar Refining” for “of a mixture of catechins (SUNPHENON®; manufactured by Taiyo Kagaku”, “Ltd.) were” for “Ltd.) was”, “glucose and 10% sodium chloride” for “glucose”, “of hesperidin glycosides” for “of the catechins”, “phase. […] Further, similar operations and measurements were performed twice more by adding 5 ml of acetone to the aqueous phase recovered after the acetone extraction.” for “phase.”
This additional extraction operation to Example 4a was conducted except for use of 10 ml of isopropanol instead of 10 ml of acetone.
as §1, with “salicin” for “a mixture of catechins (SUNPHENON®; manufactured by Taiyo Kagaku Co., Ltd.)”, “glucose and 10% sodium chloride” for “glucose”, “salicin” for “the catechins”
This additional extraction operation to Example 6a was conducted except for use of 10 ml of isopropanol instead of 10 ml of acetone.
as §1, with “caffeic acid” for “a mixture of catechins (SUNPHENON®; manufactured by Taiyo Kagaku Co., Ltd.)”, “glucose and 10% sodium chloride” for “glucose”, “caffeic acid” for “the catechins”
This additional extraction operation to Example 8a was conducted except for use of 10 ml of isopropanol instead of 10 ml of acetone.
as §1, with “0.1 g” for “1 g”, “of salicyl alcohol” for “of a mixture of catechins (SUNPHENON®; manufactured by Taiyo Kagaku Co., Ltd.)”, “glucose and 10% sodium chloride” for “glucose”, “of salicyl alcohol” for “of the catechins”
This additional extraction operation to Example 10a was conducted except for use of 10 ml of isopropanol instead of 10 ml of acetone.

[4] = Influence of temperature on extraction to a tetrahydrofuran phase; type: physicochemical; settings: aqueous phase made up to 5 ml
Method: Thereafter, the mixture was incubated at 45° C. for 4 hours to obtain a post-glucoamylase treatment reaction solution. […] Thereafter, the mixture was centrifuged at 3000 rpm for 5 minutes. […] The aqueous phase was recovered.

[5] = THF extraction of unconcentrated or concentrated glucoamylase-treated glycosylation reaction solution; type: physicochemical; settings: for Extraction rate (%), THF phase total: three THF extractions, 30° C.
Method: Thereafter, glucoamylase treatment was performed at 45° C. for 4 hours, thereby obtaining a reaction solution. […] Extraction was conducted under a condition of 30° C. The mixture was allowed to stand for 1 hour. The mixture was separated into two phases. The upper THF phase was recovered. […] The obtained THF phases were combined together. Note that although an intermediate layer was generated in the concentrate during the phase separation, the intermediate layer was included in the aqueous phase.

[6] = THF extraction of glucoamylase (XL-4) treated glycosylation reaction solution; type: physicochemical; settings: 1 ml + 1 ml THF
Method: Thereafter, the mixture was incubated at 45° C. for 3 or 4 hours. After the incubation, the contents of glucose and maltose in the solution were confirmed by a HPLC analysis method. […] Glucose and maltose in the eluate were detected by a RI detector. […] After shaking, the mixture was allowed to stand for 1 hour. […] The aqueous phase was recovered. […] The amounts of glucose and maltose were measured by an HPLC analysis method using the aqueous phase. […] Glucose and maltose in the eluate were detected by a RI detector. […] Based on the obtained results and the above-described glucose concentration, maltose concentration and HQG concentration before extraction with THF, the extraction rate to the THF phase was calculated.

[7] = Acetone extraction of hesperidin from orange juice concentrate with sodium chloride (HPLC); type: physicochemical; settings: single extraction, orange juice five-fold concentrate + equal volume 15% sodium chloride solution
Method: 10 ml of 15% sodium chloride solution was added to 10 ml of California orange juice concentrate (five-fold concentrate), and stirred to homogeneity, thereby obtaining an aqueous solution. The amount of hesperidin in the California orange juice concentrate used was measured by HPLC using a column ODS, where the mobile phase was a mixture of acetonitrile and water at 20:80, the flow rate was 0.5 ml/min, and the column temperature was 40° C. The absorbance of the eluate was detected at 280 nm. A specific method of detecting the amount of hesperidin is described in Japanese Laid-Open Publication No. 8-80177. […] Thereafter, the mixture was allowed to stand for 30 minutes. […] The upper phase (polar organic solvent phase) was recovered, and the volume thereof was measured. The amount of hesperidin was measured by HPLC as described above. As a result, by a single extraction operation, 75% of hesperidin was extracted in the acetone phase.

[8] = unconcentrated amylase treatment reaction solution

C[C@@H]1O[C@@H](O[C@H]2[C@H](Oc3cc(O)c4c(c3)O[C@H](c3ccc(O)cc3)CC4=O)O[C@H](CO)[C@@H](O)[C@@H]2O)[C@H](O)[C@H](O)[C@H]1O [naringin]
solubility in water [1]: poorly soluble in water

OCc1ccccc1O[C@@H]1O[C@H](CO)[C@@H](O)[C@H](O)[C@H]1O [salicin]
starting amount extracted in the tetrahydrofuran phase [2]: 96.5%
starting amount extracted in the acetonitrile phase [2]: 98.1%
starting amount extracted in the acetone phase [3]: 58.0%
starting amount extracted in the isopropanol phase [3]: 97.0%

C[C@@H]1O[C@@H](OC[C@H]2O[C@@H](Oc3c(-c4ccc(O)c(O)c4)oc4cc(O)cc(O)c4c3=O)[C@H](O)[C@@H](O)[C@@H]2O)[C@H](O)[C@H](O)[C@H]1O [rutin]
solubility in acetone [1]: insoluble in acetone
solubility in water [1]: poorly soluble in water

OCc1ccccc1O [salicyl alcohol]
starting amount extracted in the tetrahydrofuran phase [2]: 98.7%
starting amount extracted in the acetonitrile phase [2]: 98.2%
starting amount extracted in the acetone phase [3]: 87.7%
starting amount extracted in the isopropanol phase [3]: 98.7%

Oc1ccc(O)cc1 [HQ, hydroquinone]
concentration of the aqueous phase after THF extraction ([4]; 3° C.): 0.9%
concentration of the aqueous phase after THF extraction ([4]; 10° C.): 0.7%
concentration of the aqueous phase after THF extraction ([4]; 20° C.): 1.0%
concentration of the aqueous phase after THF extraction ([4]; 22° C.): 1.0%
concentration of the aqueous phase after THF extraction ([4]; 30° C.): 1.0%
concentration of the aqueous phase after THF extraction ([4]; 45° C.): 1.2%

O=C(O)/C=C/c1ccc(O)c(O)c1 [caffeic acid]
starting amount extracted in the tetrahydrofuran phase [2]: 88.6%
starting amount extracted in the acetonitrile phase [2]: 76.2%
starting amount extracted in the acetone phase [3]: 78.2%
starting amount extracted in the isopropanol phase [3]: 87.2%

OC[C@H]1O[C@H](O[C@H]2[C@H](O)[C@@H](O)C(O)O[C@@H]2CO)[C@H](O)[C@@H](O)[C@@H]1O (mixture of isomers) [Maltose, maltose]
Corrected concentration (equivalent in 5 ml) %, THF phase total ([5]; 70% concentrate): 0%
Extraction rate (%), THF phase total ([5]; 70% concentrate): 0%
Corrected concentration (equivalent in 5 ml) %, THF phase total ([5]; 80% concentrate): 0%
Extraction rate (%), THF phase total ([5]; 80% concentrate): 0%
Corrected concentration (equivalent in 5 ml) %, THF phase total [5, 8]: 0.1%
Extraction rate (%), THF phase total [5, 8]: 3.2%
Extraction rate to THF (%) ([6]; (XL-4) 1-fold glucoamylase treatment solution): 38.6%
Extraction rate to THF (%) ([6]; (XL-4) 1.5-fold glucoamylase treatment solution): 33.0%
Extraction rate to THF (%) ([6]; (XL-4) 2-fold glucoamylase treatment solution): 36.4%

COc1ccc([C@@H]2CC(=O)c3c(O)cc(O[C@@H]4O[C@H](CO[C@@H]5O[C@@H](C)[C@H](O)[C@@H](O)[C@H]5O)[C@@H](O)[C@H](O)[C@H]4O)cc3O2)cc1O [hesperidin]
hesperidin extracted in the acetone phase [7]: 75%
solubility in acetone [1]: insoluble in acetone
solubility in water [1]: poorly soluble in water

COc1ccc([C@@H]2CC(=O)c3c(O)cc(O[C@@H]4O[C@H](CO)[C@@H](O)[C@H](O)[C@H]4O[C@@H]4O[C@@H](C)[C@H](O)[C@@H](O)[C@H]4O)cc3O2)cc1O [neohesperidin]
solubility in water [1]: poorly soluble in water
